Test results taken from patent publication US20100075370A1, “METHOD FOR DETERMINATION OF CELL VIABILITY BY USING FLOW CYTOMETRY WITH FIXED VOLUME ACQUISITION” (TUMORTEC GMBH, priority 2006, published 2010).

Test system: pBMC from patients with CLL
Test: Cytotoxicity of several antineoplastic agents on pBMC (LC90), fixed volume flow cytometry
Type: cell-based, human
Details: in µg/mL
From the text: The necessary peripheral blood (PB) samples from adult patients diagnosed with chronic lymphatic leukaemia (CLL) were collected into heparin during routine diagnosis prior to administration of chemotherapy.

[1] = pBMC of CLL patient #1, ex vivo
[2] = pBMC of CLL patient #2, ex vivo
[3] = pBMC of CLL patient #3, ex vivo
[4] = pBMC of CLL patient #4, ex vivo
[5] = pBMC of CLL patient #5, ex vivo
[6] = pBMC of CLL patient #6, ex vivo
[7] = pBMC of CLL patient #7, ex vivo
[8] = pBMC of CLL patient #8, ex vivo
[9] = pBMC of CLL patient #9, ex vivo
[10] = pBMC of CLL patient #10, ex vivo
[11] = pBMC of CLL patient #11, ex vivo
[12] = pBMC of CLL patient #12, ex vivo
[13] = pBMC of CLL patient #13, ex vivo
[14] = pBMC of CLL patient #14, ex vivo
[15] = pBMC of CLL patient #15, ex vivo
[16] = pBMC of CLL patient #16, ex vivo
[17] = pBMC of CLL patient #17, ex vivo
[18] = pBMC of CLL patient #18, ex vivo
[19] = pBMC of CLL patient #19, ex vivo
[20] = pBMC of CLL patient #20, ex vivo
[21] = pBMC of CLL patient #21, ex vivo
[22] = pBMC of CLL patient #22, ex vivo
[23] = pBMC of CLL patient #23, ex vivo
[24] = pBMC of CLL patient #24, ex vivo
[25] = pBMC of CLL patient #25, ex vivo

Compound | LC90 [1] | LC90 [2] | LC90 [3] | LC90 [4] | LC90 [5] | LC90 [6] | LC90 [7] | LC90 [8] | LC90 [9] | LC90 [10] | LC90 [11] | LC90 [12] | LC90 [13] | LC90 [14] | LC90 [15] | LC90 [16] | LC90 [17] | LC90 [18] | LC90 [19] | LC90 [20] | further results
Nc1nc(Cl)nc2c1ncn2[C@H]1C[C@H](O)[C@@H](CO)O1 [Cladribine ®, Cladribine] | 0.185 | 0.184 | 0.159 | 0.107 | 0.083 | 0.080 | 0.063 | 0.059 | 0.052 | 0.048 | 0.047 | 0.040 | 0.029 | 0.027 | 0.024 | 0.017 | 0.015 | 0.013 | 0.007 | 0.006 | LC90 [21]: 0.005; LC90 [22]: 0.004; LC90 [23]: 0.000; LC90 [24]: 8.100; LC90 [25]: 1.967
O=C1c2c(O)ccc(O)c2C(=O)c2c(NCCNCCO)ccc(NCCNCCO)c21 [Novantrone ®, Mitoxantrone] | 0.06 | 0.03 | 0.19 | 0.15 | 0.11 | 13.37 | 0.14 | 0.02 | 0.10 | 0.05 | 12.80 | 0.06 | 0.40 | 0.09 | 0.05 | 0.01 | 0.03 | 0.08 | 0.07 | 0.02 | LC90 [21]: 0.05; LC90 [22]: 0.05; LC90 [23]: 0.01; LC90 [24]: 12.77; LC90 [25]: 0.17
CC[C@]1(O)C[C@H]2CN(CCc3c([nH]c4ccccc34)[C@@](C(=O)OC)(c3cc4c(cc3OC)N(C=O)[C@H]3[C@@](O)(C(=O)OC)[C@H](OC(C)=O)[C@]5(CC)C=CCN6CC[C@]43[C@@H]65)C2)C1 [Oncovin ®, Vincristin] | 2.51 | 0.47 | 0.14 | 10.96 | 0.33 | 0.07 | 0.88 | 10.23 | 0.47 | 0.41 | 0.21 | 0.97 | 0.24 | 0.04 | 0.44 | 0.13 | 0.41 | 0.70 | 0.10 | 0.42 | LC90 [21]: 0.10; LC90 [22]: 0.30; LC90 [23]: 0.08; LC90 [24]: 61.57; LC90 [25]: 0.23
C[C@]12C=CC(=O)C=C1CC[C@@H]1[C@@H]2[C@@H](O)C[C@@]2(C)[C@H]1CC[C@]2(O)C(=O)CO [Prednisolone ®, Prednisolone] | 40.69 | 21.96 | 12.17 | 2.25 | 12.67 | 0.88 | 35.35 | 29.81 | 33.00 | 11.71 | 0.46 | 0.86 | 2.56 | 0.56 | 0.82 | 0.19 | 35.69 | 0.51 | 0.98 | 99.92 | LC90 [21]: 0.54; LC90 [22]: 12.76; LC90 [23]: 0.82; LC90 [24]: 48.18; LC90 [25]: 0.48
